One experiment deals with A549. In words: Cytotoxicity against human A549 cells assessed as cell growth inhibition at 15 ug/ml after 72 hrs by MTT assay. The class given is functional, cell-based.
The subject of a further experiment is HepG2. In words: Cytotoxicity against human HepG2 cells assessed as cell growth inhibition at 15 ug/ml after 72 hrs by MTT assay. Type of experiment: functional, cell-based. On the technique in general: Formazan colour is commonly taken as a measure of viable cells.
The test system of a further experiment is MCF7. In words: Cytotoxicity against human MCF7 cells assessed as cell growth inhibition at 15 ug/ml after 72 hrs by MTT assay. Type of experiment: functional, cell-based.
Another experiment has as its system HT-29. In words: Cytotoxicity against human HT-29 cells assessed as cell growth inhibition at 15 ug/ml after 72 hrs by MTT assay. The class given is functional, cell-based.
A further experiment relates to MIA PaCa-2. In words: Cytotoxicity against human MIAPaCa2 cells assessed as cell growth inhibition at 15 ug/ml after 72 hrs by MTT assay. The class given is functional, cell-based.
Another experiment has as its system Staphylococcus aureus. In words: Antibacterial activity against methicillin-resistant Staphylococcus aureus after 20 hrs by spectrophotometry. Type of experiment: functional.

Converted amounts (≈) assume the structure as drawn. The source made the active and inactive calls. No cut-off for these calls is given here.

For the compound `CC1=CCC[C@]2(C)CC[C@@H]3[C@@H]([C@@H](C(C)C)CC[C@]3(C)O)[C@H]12`, the “growth inhibition (GI)” value with A549, in the experiment with HepG2, in the experiment with MCF7, with HT-29 and with MIA PaCa-2 was “inactive” in each case.

For `CC1=CCC[C@]2(C)CC[C@@]3(O)[C@@H]([C@@H](C(C)C)CC[C@@H]3C)[C@H]12`, the “growth inhibition (GI)” value in the experiment with A549, in the experiment with HepG2, in the experiment on MCF7, in the experiment on HT-29 and in the experiment with MIA PaCa-2 was “inactive” each time.

Usually MIC50 stands for an inhibitory concentration at the 50% level, which refers to growth in some studies and to a panel of isolates in others. For the compound `C=C1CCC[C@]2(C)CC[C@@]3(O)[C@@H]([C@@H](C(C)C)CC[C@@H]3C)[C@H]12`, the MIC50 against Staphylococcus aureus is 48 µg/mL (≈ 165 µM). For the same compound, the “growth inhibition (GI)” value in the experiment with A549, with HepG2, in the experiment with MCF7, with HT-29 and with MIA PaCa-2 was “inactive” in each case.

(Values after ChEMBL document CHEMBL4477154, “Gersemiols A-C and Eunicellol A, Diterpenoids from the Arctic Soft Coral Gersemia fruticosa” (2016).)
